Data on 1 substance can be found in US12060588B2, “Methods of editing DNA methylation” (Whitehead Institute for Biomedical Research, priority 2016, dated 2024).

The subject of assay [1] is Snrpn promoter region and adjacent Dazl locus. Put plainly: Bisulfite sequencing of the Dazl-Snrpn region in mESCs. The following applies: with target gRNAs. Format: cell-based, mouse. Here is the method: (§1) FIGS. 1A-IF depict activation of the Daz1-Snrpn-GFP reporter by dCas9-Tet1. […] FIG. 1B is a schematic representation of targeting the Snrpn promoter region by dCas9-Tet1 with specific gRNAs to erase methylation and activate GFP expression. […] Percentage of GFP positive cells were calculated by flow cytometric analysis of these cells 3-day post infection, and shown as the mean percentages of GFP positive cells±SD of two biological replicates. Note that the percentages of GFP-positive cells are expressed as the fraction of infected Cherry-positive cells. […] Scale bar: 250 um. Right: provides percentages of GFP positive colonies were quantified, and shown as the mean percentages of GFP positive cells±SD of two biological replicates. […] FIG. 1F provides methylation levels of individual CpGs in the Snrpn promoter region and the adjacent Dazl locus. Shown is the mean percentage±SD of two biological replicates.
Demethylation of specific CpGs: To test whether defined sequences could be demethylated, we introduced the dCas9-Tet1 construct in combination with gRNAs to target the Snrpn-GFP reporter inserted into the Dazl promoter (FIG. 1B and FIG. 9A). […] To assess the activation efficiency by dCas9-Tet1 with target gRNAs, we analyzed the cells infected by both viruses using FACS. […] We further analyzed the GFP-positive and -negative populations within infected Cherry-positive cells. […]

The test system of another assay is BDNF promoter IV. Put plainly: Bisulfite sequencing of BDNF promoter IV in mouse cortical neurons. Format: cell-based. The following applies: with 4 BDNF gRNAs, in contrast to gRNA negative controls. Here is the method:
FIGS. 3A-3E depict targeted demethylation of BDNF promoter IV by dCas9-Tet1 to activate BDNF in neurons. FIG. 3A provides a schematic representation of targeting BDNF promoter IV by dCas9-Tet1 (dC-T) with specific gRNAs to erase methylation and activate BDNF expression. […] Bars are mean t SD of three biological replicates. FIG. 3C provides representative confocal images for BDNF induction in FIG. 3B. Top panel: BDNF expression was induced by 50 mM KCl treatment for 6 hrs. […] Stained in red for MAP2 (top two panels) or Cherry (bottom two panels), green for BDNF, blue for DAPI and grey for dCas9. Scale bar: 50 um. FIG. 3D depicts bisulfite sequencing of neurons in FIG. 3C. […] Shown is the mean percentage±SD of two biological replicates.
DNA replication-independent active demethylation has been proposed to operate in post-mitotic neurons (Guo et al., 2011; Martinowich et al., 2003). To test whether active demethylation can be induced in post-mitotic neurons, we applied the dCas9-Tet1 system to study the regulation of the BDNF gene. BDNF expression can be induced by neuronal activity accompanied by demethylation of its promoter IV (Chen et al., 2003; Martinowich et al., 2003). We designed 4 gRNAs targeting 11 CpGs in BDNF promoter IV (FIG. 11A) to determine whether dCas9-Tet1 can activate BDNF by inducing demethylation of this promoter (FIG. 3A). […]

Assay [2] deals with Snrpn promoter region (Dazl-Snrpn-GFP reporter). Kind of assay: Activation of the Dazl-Snrpn-GFP methylation reporter in mESCs (flow cytometry). The assay is classed as cell-based, mouse. The following applies: lentiviral infection, 3 days, FACS. The protocol: as §1
To assess whether the dCas9-Tet1 and -Dnmt3a fusion constructs would induce demethylation or de novo methylation, respectively, of specific sequences, we utilized a methylation reporter system previously developed in our laboratory (Stelzer et al., 2015). This reporter system consists of a synthetic methylation-sensing promoter (conserved sequence elements from the promoter of an imprinted gene, Snrpn) that controls the expression of a green fluorescence protein (GFP). […]

For the substance “dCas9-Tet1: catalytically inactive Cas9 (dCas9) fused through NLS to the Tet1 catalytic domain, SEQ ID NO: 159; lentivirally expressed with gRNAs”, the “methylation status of Snrpn promoter region and adjacent Dazl locus” value in assay [1] is given as “robust demethylation only in the Snrpn promoter region but not the adjacent Dad locus”. Further, in the assay with BDNF promoter IV, the “methylation of BDNF promoter IV” value is on record as “significantly reduced methylation”. Besides, the “GFP positive cells among the Cherry positive population” value was “about 26%” in assay [2] (with 4 target gRNAs (Snrpn promoter)) and 1% in assay [2] (with a scrambled gRNA).
